{"source": "ChEMBL document CHEMBL5291721", "about": "“A preclinical secondary pharmacology resource illuminates target-adverse drug reaction associations of marketed drugs” (Nat Commun, 2023); also: assay procedure not described here", "key": {"[1]": {"target": "T1, Muscarinic acetylcholine receptor M2 (Homo sapiens, UniProt P08172)", "T1 sequence (P08172 whole entry)": "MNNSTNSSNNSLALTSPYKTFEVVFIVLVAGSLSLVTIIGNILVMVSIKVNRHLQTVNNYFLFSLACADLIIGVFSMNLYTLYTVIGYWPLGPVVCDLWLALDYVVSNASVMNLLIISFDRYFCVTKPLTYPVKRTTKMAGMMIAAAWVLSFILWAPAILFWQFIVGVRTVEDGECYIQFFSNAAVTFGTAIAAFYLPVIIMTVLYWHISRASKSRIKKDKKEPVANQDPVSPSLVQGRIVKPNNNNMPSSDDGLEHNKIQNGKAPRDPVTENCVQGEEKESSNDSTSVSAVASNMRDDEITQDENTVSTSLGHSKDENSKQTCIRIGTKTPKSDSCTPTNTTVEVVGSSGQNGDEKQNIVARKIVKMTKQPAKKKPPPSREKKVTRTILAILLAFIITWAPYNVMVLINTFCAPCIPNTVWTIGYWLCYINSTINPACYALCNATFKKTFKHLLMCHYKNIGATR"}, "[2]": {"target": "T2, Peroxisome proliferator-activated receptor gamma (Homo sapiens, UniProt P37231)", "T2 sequence (P37231 whole entry)": "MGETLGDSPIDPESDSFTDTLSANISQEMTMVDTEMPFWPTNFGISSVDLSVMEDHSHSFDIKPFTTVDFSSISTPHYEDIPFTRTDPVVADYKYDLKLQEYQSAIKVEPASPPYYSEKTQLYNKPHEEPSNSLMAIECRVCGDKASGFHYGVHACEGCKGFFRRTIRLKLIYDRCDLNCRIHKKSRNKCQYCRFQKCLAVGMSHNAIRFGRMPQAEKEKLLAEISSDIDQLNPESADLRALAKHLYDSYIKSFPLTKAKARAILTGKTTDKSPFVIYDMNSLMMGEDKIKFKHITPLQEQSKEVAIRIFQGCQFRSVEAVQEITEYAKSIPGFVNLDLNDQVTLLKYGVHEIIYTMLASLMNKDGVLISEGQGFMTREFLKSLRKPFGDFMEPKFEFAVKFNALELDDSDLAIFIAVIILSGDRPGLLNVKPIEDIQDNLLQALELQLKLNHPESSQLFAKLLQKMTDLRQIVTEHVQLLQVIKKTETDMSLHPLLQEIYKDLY", "type": "functional"}, "Histamine H1 receptor": {"target": "Histamine H1 receptor (Homo sapiens, UniProt P35367)", "sequence (P35367 whole entry)": "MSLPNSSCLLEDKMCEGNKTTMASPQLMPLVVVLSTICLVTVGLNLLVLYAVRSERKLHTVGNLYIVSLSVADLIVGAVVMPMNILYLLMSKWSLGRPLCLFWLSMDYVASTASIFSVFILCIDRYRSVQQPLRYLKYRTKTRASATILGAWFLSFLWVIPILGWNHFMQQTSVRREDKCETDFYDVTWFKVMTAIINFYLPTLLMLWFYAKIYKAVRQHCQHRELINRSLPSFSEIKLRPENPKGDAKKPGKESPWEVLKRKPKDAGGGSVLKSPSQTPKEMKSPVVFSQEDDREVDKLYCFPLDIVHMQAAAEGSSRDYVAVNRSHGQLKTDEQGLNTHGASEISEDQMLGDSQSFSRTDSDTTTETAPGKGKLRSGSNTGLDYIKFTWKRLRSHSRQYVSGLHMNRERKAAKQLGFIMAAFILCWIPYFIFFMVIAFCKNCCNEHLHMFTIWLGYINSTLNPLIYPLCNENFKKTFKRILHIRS"}, "[3]": {"target": "T3, Endothelin receptor type B (Homo sapiens, UniProt P24530)", "T3 sequence (P24530 whole entry)": "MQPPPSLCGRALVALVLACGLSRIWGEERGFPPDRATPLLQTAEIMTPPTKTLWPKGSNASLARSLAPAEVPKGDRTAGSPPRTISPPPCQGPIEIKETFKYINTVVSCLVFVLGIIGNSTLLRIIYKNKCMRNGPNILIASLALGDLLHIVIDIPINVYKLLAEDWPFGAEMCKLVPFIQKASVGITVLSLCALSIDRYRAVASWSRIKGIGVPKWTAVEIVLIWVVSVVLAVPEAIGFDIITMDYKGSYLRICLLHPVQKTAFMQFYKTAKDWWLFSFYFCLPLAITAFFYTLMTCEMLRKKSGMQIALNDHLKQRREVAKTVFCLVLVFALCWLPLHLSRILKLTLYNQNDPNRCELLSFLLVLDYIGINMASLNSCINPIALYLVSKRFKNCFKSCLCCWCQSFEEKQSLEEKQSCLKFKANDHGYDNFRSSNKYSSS"}, "[4]": {"target": "T4, Corticotropin-releasing factor receptor 1 (Homo sapiens, UniProt P34998)", "T4 sequence (P34998 whole entry)": "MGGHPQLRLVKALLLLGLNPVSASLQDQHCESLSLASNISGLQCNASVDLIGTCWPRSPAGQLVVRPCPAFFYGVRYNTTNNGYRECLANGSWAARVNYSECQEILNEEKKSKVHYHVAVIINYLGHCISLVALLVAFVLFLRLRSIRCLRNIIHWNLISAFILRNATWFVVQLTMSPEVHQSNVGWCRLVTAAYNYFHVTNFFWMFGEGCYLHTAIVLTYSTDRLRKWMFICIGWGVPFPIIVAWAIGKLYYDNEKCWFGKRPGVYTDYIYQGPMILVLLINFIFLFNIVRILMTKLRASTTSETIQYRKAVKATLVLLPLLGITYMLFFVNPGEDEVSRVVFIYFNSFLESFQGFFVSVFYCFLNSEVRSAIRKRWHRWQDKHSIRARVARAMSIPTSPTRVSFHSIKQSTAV"}, "Estrogen receptor": {"target": "T5, Estrogen receptor (Homo sapiens, UniProt P03372)", "T5 sequence (P03372 whole entry)": "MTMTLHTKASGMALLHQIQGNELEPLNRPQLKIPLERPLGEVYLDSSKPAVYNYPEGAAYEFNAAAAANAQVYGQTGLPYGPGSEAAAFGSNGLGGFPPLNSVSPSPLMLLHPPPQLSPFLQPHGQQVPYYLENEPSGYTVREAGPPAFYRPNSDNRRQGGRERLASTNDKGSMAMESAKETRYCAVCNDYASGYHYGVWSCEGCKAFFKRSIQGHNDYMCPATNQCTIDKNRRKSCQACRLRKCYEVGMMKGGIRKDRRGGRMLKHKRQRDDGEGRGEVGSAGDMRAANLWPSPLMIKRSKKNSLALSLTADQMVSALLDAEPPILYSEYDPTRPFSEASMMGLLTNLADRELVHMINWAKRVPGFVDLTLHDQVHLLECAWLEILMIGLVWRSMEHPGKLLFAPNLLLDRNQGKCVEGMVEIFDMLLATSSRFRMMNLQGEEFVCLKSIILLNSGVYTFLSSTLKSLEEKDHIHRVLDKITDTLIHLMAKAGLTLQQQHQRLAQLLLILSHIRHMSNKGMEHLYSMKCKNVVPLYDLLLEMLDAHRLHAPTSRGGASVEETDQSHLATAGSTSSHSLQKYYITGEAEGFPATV"}, "[5]": {"target": "Gamma-aminobutyric acid receptor subunit alpha-1/alpha-2/beta-2/gamma-2 (Homo sapiens, UniProt P14867+P18507+P47869+P47870)", "sequence (P14867 whole entry)": "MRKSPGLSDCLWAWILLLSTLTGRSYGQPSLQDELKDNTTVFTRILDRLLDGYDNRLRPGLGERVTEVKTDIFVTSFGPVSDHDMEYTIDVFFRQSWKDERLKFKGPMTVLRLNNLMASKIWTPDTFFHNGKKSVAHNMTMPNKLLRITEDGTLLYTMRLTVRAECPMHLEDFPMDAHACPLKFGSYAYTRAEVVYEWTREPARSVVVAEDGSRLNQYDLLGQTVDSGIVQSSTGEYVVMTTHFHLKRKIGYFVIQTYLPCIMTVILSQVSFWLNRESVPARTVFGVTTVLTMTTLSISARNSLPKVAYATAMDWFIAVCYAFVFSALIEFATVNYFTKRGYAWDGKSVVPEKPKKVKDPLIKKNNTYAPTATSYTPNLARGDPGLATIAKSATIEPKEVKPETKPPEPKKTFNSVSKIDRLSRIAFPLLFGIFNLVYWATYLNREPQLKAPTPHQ", "sequence (P47870 whole entry)": "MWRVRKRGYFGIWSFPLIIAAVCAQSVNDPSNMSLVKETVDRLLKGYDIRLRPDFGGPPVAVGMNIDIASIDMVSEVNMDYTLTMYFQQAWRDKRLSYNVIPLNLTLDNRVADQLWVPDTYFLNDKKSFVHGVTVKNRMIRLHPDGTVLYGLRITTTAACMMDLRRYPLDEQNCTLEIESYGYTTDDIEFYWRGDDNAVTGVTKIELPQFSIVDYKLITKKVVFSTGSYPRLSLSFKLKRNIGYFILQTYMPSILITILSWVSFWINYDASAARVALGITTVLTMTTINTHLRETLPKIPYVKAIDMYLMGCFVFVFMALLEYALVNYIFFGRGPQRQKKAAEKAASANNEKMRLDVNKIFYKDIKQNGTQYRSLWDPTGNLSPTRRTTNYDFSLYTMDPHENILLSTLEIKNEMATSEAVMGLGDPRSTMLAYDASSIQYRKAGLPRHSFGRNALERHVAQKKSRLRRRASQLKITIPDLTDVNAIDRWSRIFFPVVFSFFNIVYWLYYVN", "sequence (P18507 whole entry)": "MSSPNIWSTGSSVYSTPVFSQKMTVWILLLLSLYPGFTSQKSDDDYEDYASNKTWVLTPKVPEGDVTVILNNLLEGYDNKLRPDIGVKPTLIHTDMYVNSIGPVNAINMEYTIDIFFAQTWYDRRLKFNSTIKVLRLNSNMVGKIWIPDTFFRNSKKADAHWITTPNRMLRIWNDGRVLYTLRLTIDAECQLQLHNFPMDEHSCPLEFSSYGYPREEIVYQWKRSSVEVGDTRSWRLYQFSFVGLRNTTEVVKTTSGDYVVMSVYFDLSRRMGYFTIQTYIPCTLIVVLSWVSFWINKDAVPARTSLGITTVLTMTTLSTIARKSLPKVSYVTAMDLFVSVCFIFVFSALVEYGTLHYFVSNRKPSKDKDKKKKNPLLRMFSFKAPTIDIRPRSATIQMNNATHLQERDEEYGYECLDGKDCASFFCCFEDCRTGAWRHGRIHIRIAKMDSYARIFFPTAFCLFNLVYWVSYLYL", "sequence (P47869 whole entry)": "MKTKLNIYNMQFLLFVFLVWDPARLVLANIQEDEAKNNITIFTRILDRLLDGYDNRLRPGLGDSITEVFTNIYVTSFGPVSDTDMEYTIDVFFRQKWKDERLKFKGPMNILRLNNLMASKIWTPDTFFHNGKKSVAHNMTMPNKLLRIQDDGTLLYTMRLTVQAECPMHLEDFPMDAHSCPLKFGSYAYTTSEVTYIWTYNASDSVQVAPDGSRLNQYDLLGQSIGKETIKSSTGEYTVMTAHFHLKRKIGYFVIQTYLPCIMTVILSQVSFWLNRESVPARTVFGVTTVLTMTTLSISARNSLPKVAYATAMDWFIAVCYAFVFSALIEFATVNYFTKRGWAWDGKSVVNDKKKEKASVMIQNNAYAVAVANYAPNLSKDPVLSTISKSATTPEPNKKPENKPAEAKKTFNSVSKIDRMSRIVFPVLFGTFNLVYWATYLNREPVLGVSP", "type": "protein-complex assay"}}, "data": [{"compound": "N[C@@H](CC(=O)N1CCn2c(nnc2C(F)(F)F)C1)Cc1cc(F)c(F)cc1F", "note": "[SITAGLIPTIN]", "values": [{"measurement": "AC50", "setting": "[1]", "value": "> 10", "unit": "µM"}, {"measurement": "AC50", "setting": "[2]", "value": "> 30", "unit": "µM"}, {"measurement": "AC50", "setting": "Histamine H1 receptor", "value": "> 30", "unit": "µM"}, {"measurement": "AC50", "setting": "[3]", "value": "> 10", "unit": "µM"}]}, {"compound": "C[C@H](CCC(=O)O)[C@H]1CC[C@H]2[C@@H]3[C@@H](O)C[C@@H]4C[C@H](O)CC[C@]4(C)[C@H]3CC[C@]12C", "note": "[URSODIOL]", "values": [{"measurement": "AC50", "setting": "[2]", "value": "> 30", "unit": "µM"}, {"measurement": "AC50", "setting": "Histamine H1 receptor", "value": "> 30", "unit": "µM"}]}, {"compound": "CN1C[C@H](C(=O)N[C@]2(C)O[C@@]3(O)[C@@H]4CCCN4C(=O)[C@H](Cc4ccccc4)N3C2=O)C=C2c3cccc4[nH]cc(c34)C[C@H]21", "note": "[ERGOTAMINE]", "values": [{"measurement": "AC50", "setting": "[2]", "value": "> 30", "unit": "µM"}]}, {"compound": "C=CC[C@@H]1/C=C(\\C)C[C@H](C)C[C@H](OC)[C@H]2O[C@@](O)(C(=O)C(=O)N3CCCC[C@H]3C(=O)O[C@H](/C(C)=C/[C@@H]3CC[C@@H](O)[C@H](OC)C3)[C@H](C)[C@@H](O)CC1=O)[C@H](C)C[C@@H]2OC", "note": "[TACROLIMUS ANHYDROUS]", "values": [{"measurement": "AC50", "setting": "[1]", "value": "> 10", "unit": "µM"}, {"measurement": "AC50", "setting": "[4]", "value": "> 30", "unit": "µM"}, {"measurement": "AC50", "setting": "[2]", "value": "> 30", "unit": "µM"}, {"measurement": "AC50", "setting": "[3]", "value": "> 30", "unit": "µM"}, {"measurement": "AC50", "setting": "Estrogen receptor", "value": "> 30", "unit": "µM"}]}, {"compound": "Cc1onc(-c2ccccc2)c1-c1ccc(S(N)(=O)=O)cc1", "note": "[VALDECOXIB]", "values": [{"measurement": "AC50", "setting": "[1]", "value": "> 10", "unit": "µM"}, {"measurement": "AC50", "setting": "[4]", "value": "> 30", "unit": "µM"}, {"measurement": "AC50", "setting": "[2]", "value": "> 30", "unit": "µM"}, {"measurement": "AC50", "setting": "[3]", "value": "> 30", "unit": "µM"}, {"measurement": "AC50", "setting": "[5]", "value": "> 30", "unit": "µM"}]}, {"compound": "CC(C)c1nc(N(C)S(C)(=O)=O)nc(-c2ccc(F)cc2)c1/C=C/[C@@H](O)C[C@@H](O)CC(=O)O", "note": "[ROSUVASTATIN]", "values": [{"measurement": "AC50", "setting": "[2]", "value": "> 30", "unit": "µM"}, {"measurement": "AC50", "setting": "Histamine H1 receptor", "value": "> 30", "unit": "µM"}, {"measurement": "AC50", "setting": "Estrogen receptor", "value": "> 30", "unit": "µM"}]}, {"compound": "CC(S)C(=O)NCC(=O)O", "note": "(centres undefined) [TIOPRONIN]", "values": [{"measurement": "AC50", "setting": "[2]", "value": "> 30", "unit": "µM"}, {"measurement": "AC50", "setting": "Histamine H1 receptor", "value": "> 30", "unit": "µM"}]}, {"compound": "CCN1CCN(Cc2ccc(Nc3ncc(F)c(-c4cc(F)c5nc(C)n(C(C)C)c5c4)n3)nc2)CC1", "note": "[ABEMACICLIB]", "values": [{"measurement": "AC50", "setting": "[2]", "value": "> 30", "unit": "µM"}, {"measurement": "AC50", "setting": "Histamine H1 receptor", "value": 23, "unit": "µM"}]}, {"compound": "COc1cc2nccc(Oc3ccc(NC(=O)C4(C(=O)Nc5ccc(F)cc5)CC4)cc3)c2cc1OC", "note": "[CABOZANTINIB]", "values": [{"measurement": "AC50", "setting": "[2]", "value": "> 30", "unit": "µM"}, {"measurement": "AC50", "setting": "Histamine H1 receptor", "value": "> 30", "unit": "µM"}, {"measurement": "AC50", "setting": "[5]", "value": "> 30", "unit": "µM"}]}, {"compound": "OC[C@H]1O[C@@](CO)(O[C@H]2O[C@H](CO)[C@@H](O)[C@H](O)[C@H]2O)[C@@H](O)[C@@H]1O", "note": "[SUCROSE]", "values": [{"measurement": "AC50", "setting": "[2]", "value": "> 30", "unit": "µM"}, {"measurement": "AC50", "setting": "Histamine H1 receptor", "value": "> 30", "unit": "µM"}, {"measurement": "AC50", "setting": "Estrogen receptor", "value": "> 30", "unit": "µM"}]}, {"compound": "COc1ccccc1OCCNCC(O)COc1cccc2[nH]c3ccccc3c12", "note": "(centres undefined) [CARVEDILOL]", "values": [{"measurement": "AC50", "setting": "[1]", "value": "> 10", "unit": "µM"}, {"measurement": "AC50", "setting": "[4]", "value": "> 30", "unit": "µM"}, {"measurement": "AC50", "setting": "[2]", "value": 28, "unit": "µM"}, {"measurement": "AC50", "setting": "[3]", "value": "> 30", "unit": "µM"}, {"measurement": "AC50", "setting": "Estrogen receptor", "value": "> 30", "unit": "µM"}]}, {"compound": "C[C@@H](Oc1cc(-c2cnn(C3CCNCC3)c2)cnc1N)c1c(Cl)ccc(F)c1Cl", "note": "[CRIZOTINIB]", "values": [{"measurement": "AC50", "setting": "[1]", "value": "> 10", "unit": "µM"}, {"measurement": "AC50", "setting": "[4]", "value": "> 30", "unit": "µM"}, {"measurement": "AC50", "setting": "[2]", "value": "> 30", "unit": "µM"}, {"measurement": "AC50", "setting": "Histamine H1 receptor", "value": "> 30", "unit": "µM"}]}]}
